Assay results taken from patent publication US20260199323A1, “LIGAND COMPOUNDS FOR E3 UBIQUITIN LIGASE, PROTEIN DEGRADERS DEVELOPED ON BASIS OF LIGAND COMPOUNDS, AND USES THEREOF” (GLUETACS THERAPEUTICS (SHANGHAI) CO., LTD., priority 2021, published 2026).
Where two headings read alike, the source gives them in different places.

Tests used:
[1] = test system: MDA-MB-231; experiment: CCK-8 tumor cell proliferation, MDA-MB-231; type: cell-based, Human; design: IC50 for inhibiting the proliferation of tumor cells, MDA-MB-231: scale not given here; conditions: Table 7, designed based on BTK inhibitors; 96 h
Summary of the method: (§1)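 Using the CCK-8 kit, viability of plated cells is assessed after exposure to compound across ten concentrations (5-fold serial dilution, top 10 μM) added at 24 h. IC50 is obtained by curve fitting of growth inhibition.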

[2] = test system: MV-4-11; experiment: CCK-8 tumor cell proliferation, MV-4-11; type: cell-based, Human; conditions: for IC50 for inhibiting the proliferation of tumor cells, MV-4-11: Table 7, designed based on BTK inhibitors, 72 h; for IC50: Homo sapiens, MV4-11, Table 19, IRAK4 inhibitor based, MV-4-11, read-out: IC50 inhibiting proliferation of tumor cells, MV-4-11
Summary of the method: as §1

[3] = test system: Kasumi-1; experiment: CCK-8 tumor cell proliferation, Kasumi-1; type: cell-based, Human; conditions: for IC50 for inhibiting the proliferation of tumor cells, Kasumi-1: Table 7, designed based on BTK inhibitors, 72 h; for IC50: Homo sapiens, Table 19, IRAK4 inhibitor based, Kasumi-1, read-out: IC50 inhibiting proliferation of tumor cells, Kasumi-1
Summary of the method: as §1

[4] = test system: 22RV1; experiment: CCK-8 tumor cell proliferation, 22RV1; design: species or system Human; conditions: Table 7, designed based on BTK inhibitors; 96 h
Description: (§2) The tumor cells used herein were cultured in a cell culture medium listed in table 4 at 37° C. in an incubator with 5% CO2. Prior to experimentation, all cells used were correctly identified by STR profiling, and tested negative for mycoplasma through routine screenings.
(§3) IC50 values of the compounds of the present disclosure (including the compounds in Tables 1 and 3, and compounds of examples) were measured using the Meilun Cell Counting Kit-8 kit from Dalian Meilun Biotech Co., Ltd. Assay details are as follows: tumor cells were seeded in a 96-well plate at a density listed in Table 5. After 24 h, 100 μL of the inoculated cells were treated with 0.5 μL of the compounds of the present disclosure (including the compounds in Tables 1 and 3, and compounds of examples) at 10 different successively decreasing concentrations (starting at the highest concentration of 10 μM; 5-fold serial dilutions). After the cells were treated with the compounds of the present disclosure for a period of time, the cell viability detection reagent was added to the culture medium for cell viability assessment according to the instructions provided with the CCK-8 kit. […] The growth inhibition of the compounds of the present disclosure on cells was plotted by Prism Graphpad software, and the IC50 values of the compounds of the present disclosure were calculated therefrom.

[5] = test system: NCI-H1975; experiment: CCK-8 tumor cell proliferation, NCI-H1975; type: cell-based, Human; conditions: Table 7, designed based on BTK inhibitors; 96 h
Summary of the method: as §1

[6] = test system: MM.1S; experiment: CCK-8 tumor cell proliferation, MM.1S; type: cell-based; conditions: Table 7, designed based on BTK inhibitors; 72 h
Summary of the method: as §1

[7] = test system: Jurkat; experiment: CCK-8 tumor cell proliferation, Jurkat; type: cell-based, Human; conditions: Homo sapiens
Summary of the method: as §1

[8] = test system: JEKO-1; experiment: CCK-8 tumor cell proliferation, JEKO-1; design: species or system Human; conditions: Table 7, designed based on BTK inhibitors; 96 h
Description: as §2, §3

[9] = test system: Vcap; experiment: CCK-8 tumor cell proliferation, Vcap; type: cell-based, Human; conditions: Table 7, designed based on BTK inhibitors; 96 h
Summary of the method: as §1

[10] = test system: THP-1; experiment: CCK-8 tumor cell proliferation, THP-1; type: cell-based, Human; conditions: Table 7, designed based on BTK inhibitors; 72 h
Description: as §2, §3

[11] = test system: Mino; experiment: CCK-8 tumor cell proliferation, Mino; type: cell-based, Human; conditions: for IC50 for inhibiting the proliferation of tumor cells, Mino: Table 7, designed based on BTK inhibitors, 72 h; for IC50: Mino, read-out: IC50 inhibiting proliferation of tumor cells, Mino
Summary of the method: as §1

[12] = test system: MM.1R; experiment: CCK-8 tumor cell proliferation, MM.1R; type: cell-based
Summary of the method: as §1

[13] = test system: CAL-62; experiment: CCK-8 tumor cell proliferation, CAL-62; type: cell-based, Human; conditions: Homo sapiens, CAL-62
Summary of the method: as §1

[14] = test system: CCRF-CEM; experiment: CCK-8 tumor cell proliferation, CCRF-CEM; type: cell-based, Human; design: IC50 for inhibiting the proliferation of tumor cells, CCRF-CEM: scale not given here; conditions: for IC50 for inhibiting the proliferation of tumor cells, CCRF-CEM: Table 7, designed based on BTK inhibitors, 96 h; for IC50: Homo sapiens, Table 19, IRAK4 inhibitor based, CCRF-CEM, read-out: IC50 inhibiting proliferation of tumor cells, CCRF-CEM
Summary of the method: as §1

[15] = test system: SW620; experiment: CCK-8 tumor cell proliferation, SW620; type: cell-based, Human; conditions: SW620, read-out: IC50 inhibiting proliferation of tumor cells, SW620
Summary of the method: as §1

[16] = test system: NCI-H1666; experiment: CCK-8 tumor cell proliferation, NCI-H1666; type: cell-based, Human; conditions: read-out: IC50 inhibiting proliferation of tumor cells, NCI-H1666
Description: as §2, §3

[17] = test system: SU-DHL-4; experiment: CCK-8 tumor cell proliferation, SU-DHL-4; type: cell-based, Human; conditions: read-out: IC50 inhibiting proliferation of tumor cells, SU-DHL-4
Description: as §2, §3

[18] = Homo sapiens, SW-620, Table 19, IRAK4 inhibitor based
[19] = Table 19, IRAK4 inhibitor based, read-out: IC50 inhibiting proliferation of tumor cells, Jurkat
[20] = Homo sapiens, Table 19, IRAK4 inhibitor based
[21] = Table 19, IRAK4 inhibitor based, read-out: IC50 inhibiting proliferation of tumor cells, MM.1R
[22] = Table 19, IRAK4 inhibitor based, read-out: IC50 inhibiting proliferation of tumor cells, CAL-62
[23] = Homo sapiens, Table 19, given as number

Nc1ncnc2c1c(-c1ccc(Oc3ccccc3)cc1)nn2C1CCN(Cc2ccc3c(c2)CN(C2CCC(=O)NC2=O)C3=O)CC1 (stereo not drawn) [GT-02742, 3-(5-((4-(4-amino-3-(4-phenoxyphenyl)-1H-pyrazolo[3,4-d]pyrimidin-1-yl)piperidin-1-yl)methyl)-1-oxoisoindolin-2-yl)piperidine-2,6-dione]
A+: IC50 for inhibiting the proliferation of tumor cells, MDA-MB-231 [1] | IC50 for inhibiting the proliferation of tumor cells, MV-4-11 [2] | IC50 for inhibiting the proliferation of tumor cells, Kasumi-1 [3] | IC50 for inhibiting the proliferation of tumor cells, 22RV1 [4] | IC50 for inhibiting the proliferation of tumor cells, NCI-H1975 [5] | IC50 for inhibiting the proliferation of tumor cells, MM.1S [6] | IC50 for inhibiting the proliferation of tumor cells, JEKO-1 [8] | IC50 for inhibiting the proliferation of tumor cells, Vcap [9] | IC50 for inhibiting the proliferation of tumor cells, THP-1 [10] | IC50 for inhibiting the proliferation of tumor cells, Mino [11]
< 50 nM: IC50 ([7]; Table 23, compared to Comparative Example compounds, read-out: Inhibitory activity (IC50, nM) against tumor cell proliferation, Jurkat) | IC50 ([12]; Table 23, compared to Comparative Example compounds, read-out: Inhibitory activity (IC50, nM) against tumor cell proliferation, MM.1R) | IC50 ([13]; Table 23, compared to Comparative Example compounds, read-out: Inhibitory activity (IC50, nM) against tumor cell proliferation, CAL-62)

Nc1ncnc2c1c(-c1ccc(Oc3ccccc3)cc1)nn2[C@H]1CCN(Cc2ccc3c(c2)CN(C2CCC(=O)NC2=O)C3=O)C[C@@H]1F (stereo partly drawn) [GT-03264, 3-(5-(((3S,4S)-4-(4-amino-3-(4-phenoxyphenyl)-1H-pyrazolo[3,4-d]pyrimidin-1-yl)-3-fluoropiperidin-1-yl)methyl)-1-oxoisoindolin-2-yl)piperidine-2,6-dione]
A+: IC50 for inhibiting the proliferation of tumor cells, MDA-MB-231 [1] | IC50 for inhibiting the proliferation of tumor cells, 22RV1 [4] | IC50 for inhibiting the proliferation of tumor cells, NCI-H1975 [5] | IC50 for inhibiting the proliferation of tumor cells, MM.1S [6] | IC50 for inhibiting the proliferation of tumor cells, JEKO-1 [8] | IC50 for inhibiting the proliferation of tumor cells, Mino [11]

Nc1ncnc2c1c(-c1ccc(Oc3ccccc3)cc1)nn2[C@@H]1CCN(Cc2ccc3c(c2)CN(C2CCC(=O)NC2=O)C3=O)C[C@H]1F (stereo partly drawn) [GT-03287, 3-(5-(((3R,4R)-4-(4-amino-3-(4-phenoxyphenyl)-1H-pyrazolo[3,4-d]pyrimidin-1-yl)-3-fluoropiperidin-1-yl)methyl)-1-oxoisoindolin-2-yl)piperidine-2,6-dione]
A+: IC50 for inhibiting the proliferation of tumor cells, MDA-MB-231 [1] | IC50 for inhibiting the proliferation of tumor cells, 22RV1 [4] | IC50 for inhibiting the proliferation of tumor cells, MM.1S [6] | IC50 for inhibiting the proliferation of tumor cells, JEKO-1 [8] | IC50 for inhibiting the proliferation of tumor cells, Mino [11]

Nc1ncnc2c1c(-c1ccc(Oc3ccccc3)cc1)nn2[C@@H]1CCN(Cc2ccc3c(c2)CN(C2CCC(=O)NC2=O)C3=O)C[C@@H]1F (stereo partly drawn) [GT-03297, 3-(5-(((3S,4R)-4-(4-amino-3-(4-phenoxyphenyl)-1H-pyrazolo[3,4-d]pyrimidin-1-yl)-3-fluoropiperidin-1-yl)methyl)-1-oxoisoindolin-2-yl)piperidine-2,6-dione]
A+: IC50 for inhibiting the proliferation of tumor cells, MDA-MB-231 [1] | IC50 for inhibiting the proliferation of tumor cells, Kasumi-1 [3] | IC50 for inhibiting the proliferation of tumor cells, 22RV1 [4] | IC50 for inhibiting the proliferation of tumor cells, NCI-H1975 [5] | IC50 for inhibiting the proliferation of tumor cells, MM.1S [6] | IC50 for inhibiting the proliferation of tumor cells, JEKO-1 [8] | IC50 for inhibiting the proliferation of tumor cells, Vcap [9] | IC50 for inhibiting the proliferation of tumor cells, THP-1 [10] | IC50 for inhibiting the proliferation of tumor cells, CCRF-CEM [14]

Nc1ncnc2c1c(-c1ccc(Oc3ccccc3)cc1)nn2[C@H]1CCN(Cc2ccc3c(c2)CN(C2CCC(=O)NC2=O)C3=O)C[C@H]1F (stereo partly drawn) [GT-03331, 3-(5-(((3R,4S)-4-(4-amino-3-(4-phenoxyphenyl)-1H-pyrazolo[3,4-d]pyrimidin-1-yl)-3-fluoropiperidin-1-yl)methyl)-1-oxoisoindolin-2-yl)piperidine-2,6-dione]
A+: IC50 for inhibiting the proliferation of tumor cells, MDA-MB-231 [1] | IC50 for inhibiting the proliferation of tumor cells, MV-4-11 [2] | IC50 for inhibiting the proliferation of tumor cells, Kasumi-1 [3] | IC50 for inhibiting the proliferation of tumor cells, 22RV1 [4] | IC50 for inhibiting the proliferation of tumor cells, NCI-H1975 [5] | IC50 for inhibiting the proliferation of tumor cells, MM.1S [6] | IC50 for inhibiting the proliferation of tumor cells, JEKO-1 [8] | IC50 for inhibiting the proliferation of tumor cells, Vcap [9] | IC50 for inhibiting the proliferation of tumor cells, THP-1 [10] | IC50 for inhibiting the proliferation of tumor cells, Mino [11] | IC50 for inhibiting the proliferation of tumor cells, CCRF-CEM [14]

O=C1CCC(N2Cc3cc(CN4CCC(n5cc(NC(=O)c6cnn7ccc(N8CCOCC8)nc67)c(C(F)F)n5)CC4)ccc3C2=O)C(=O)N1 (stereo not drawn) [GT-03809, N-(3-(difluoromethyl)-1-(1-((2-(2,6-dioxopiperidin-3-yl)-1-oxoisoindolin-5-yl)methyl)piperidin-4-yl)-1H-pyrazol-4-yl)-5-morpholinopyrazolo[1,5-a]pyrimidine-3-carboxamide]
500 to 1000 nM: IC50 [16, 20] | IC50 [17, 20]
< 50 nM: IC50 [15, 18] | IC50 [2] | IC50 [3] | IC50 [7, 19] | IC50 [11, 20] | IC50 [14] | IC50 [12, 21] | IC50 [13, 22]

O=C1CCC(N2Cc3c(ccc(CN4CCC(n5cc(NC(=O)c6cnn7ccc(N8CCOCC8)nc67)c(C(F)F)n5)CC4)c3F)C2=O)C(=O)N1 (stereo not drawn) [GT-03810, N-(3-(difluoromethyl)-1-(1-((2-(2,6-dioxopiperidin-3-yl)-4-fluoro-1-oxoisoindolin-5-yl)methyl)piperidin-4-yl)-1H-pyrazol-4-yl)-5-morpholinopyrazolo[1,5-a]pyrimidine-3-carboxamide]
< 50 nM: IC50 [15, 18] | IC50 [2] | IC50 [3] | IC50 [7, 19] | IC50 [11, 20] | IC50 [14] | IC50 [12, 21] | IC50 [13, 22]
100 to 500 nM: IC50 [16, 20] | IC50 [17, 20]

CC[C@@H]1[C@H](F)C(=O)N[C@@H]1COc1nccc2cc(C(N)=O)c(OC)cc12 [PF06650833, reference compound]
5000 to 10000 nM: IC50 ([11]; Table 19, IRAK4 inhibitor based)
> 10000 nM: IC50 ([15]; Table 19, given as number) | IC50 ([16]; Table 19, given as number) | IC50 ([17]; Table 19, given as number)

Cc1cc(-c2nc(C(=O)Nc3cc4oc(N5CCOCC5)nc4nc3N3CC[C@@H](O)C3)co2)ccn1 [emavusertib, reference compound]
> 10000 nM: IC50 ([15]; Homo sapiens, SW-620, Table 19, given as number) | IC50 [16, 23] | IC50 [17, 23] | IC50 [11, 23]
